For this test, the system named is HBV replication in HepG2.2.15 cells. The test can be described thus: Anti-HBV activity in vitro in HepG2.2.15 cells (extracellular HBV DNA by qPCR). It counts as cell-based. The note with it: read-out: EC50. An excerpt:
HepG2.2.15 and HepDE19 are stably-transfected cell lines containing the HBV genome. Both cell lines are derived from the hepatoblastoma cell line Hep G2 (American Type Culture Collection, ATCC® HB-8065™) by the published procedures described in references: M A Selles et al. Proc. Natl. Acad. Sci. USA 1987, 84, 1005-1009 and H Guo et al. Journal of Virology 2007, 81, 12472-12484, respectively. Both cell lines were maintained in Dulbecco's modified Eagle's medium (DMEM)-F12 medium supplemented with 10% fetal bovine serum, 100 U/mL penicillin, 100 μg/mL streptomycin, and 0.5 mg/mL of G418.
While HepG2.2.15 cells constitutively support HBV replication and production of virus particles, HepDE19 cells are inducible by tetracycline. Addition of 1 μg/mL tetracycline in culture medium suppresses HBV replication in HepDE19 cells, whereas switching to tetracycline-free medium resumes this process.
HepG2.2.15 cells were seeded into 96-well plates (3×10^4 cells in 100 μL media per well) and incubated overnight at 37° C. The test compounds were serially half-log diluted in DMSO, then diluted 100 times in culture media. 100 μL diluted compounds were added into the plates to reach 0.5% final concentration of DMSO in every well. Five days after compound treatment, culture supernatant was collected for further analysis.
For quantitative PCR detection of extracellular HBV DNA, 100 μL culture supernatant was collected and processed in MagNA Pure 96 Nucleic Acid Purification System (Roche Applied Science) for viral DNA extraction. The extracted samples were subjected to HBV DNA quantification by qPCR. The effective compound concentration at which HBV replication is inhibited by 50% (EC50) was determined.
The Examples were tested in the above assays as described herein and found to have EC50<1 μM in HepG2.2.15 assay.

[1] abbreviates: Hepatitis B virus, HepG2.2.15, Anti-HBV activity in HepG2.2.15 cells.

Read-outs that look alike come from different tables or passages of the source.

One may read the EC50 as the concentration at which the effect is half-maximal.

As to `COC(=O)C1=C(CN2C3COCC2C(O)C3)NC(c2nccs2)=N[C@H]1c1ccc(F)cc1Cl` (mixture of isomers) [Example 49, Methyl (4R)-4-(2-chloro-4-fluoro-phenyl)-6-[(6-hydroxy-3-oxa-8-azabicyclo[3.2.1]octan-8-yl)methyl]-2-thiazol-2-yl-1,4-dihydropyrimidine-5-carboxylate], the concentration for a half-maximal effect (EC50) under setting [1] is 17.2 nM.
Still for that read-out and setting: under `COC(=O)C1=C(CN2C3COCC2CC(C(=O)OC)C3)NC(c2nccs2)=N[C@H]1c1ccc(F)cc1Br` (stereo partly drawn) [Example 4, 9-[(R)-6-(2-Bromo-4-fluoro-phenyl)-5-methoxycarbonyl-2-thiazol-2-yl-3,6-dihydro-pyrimidin-4-ylmethyl]-3-oxa-9-aza-bicyclo[3.3.1]nonane-7-carboxylic acid methyl ester] stands 39 nM.
As to `COC(=O)C1=C(CN2C3COCC2CC(O)C3)NC(c2nccs2)=N[C@H]1c1ccc(F)cc1Cl` (stereo partly drawn) [Example 9, (R)-4-(2-Chloro-4-fluoro-phenyl)-6-(7-hydroxy-3-oxa-9-aza-bicyclo[3.3.1]non-9-ylmethyl)-2-thiazol-2-yl-1,4-dihydro-pyrimidine-5-carboxylic acid methyl ester], the EC50 (Anti-HBV activity in HepG2.2.15 cells) came to 14 nM.
Consider `CNS(=O)(=O)N1CC2COCC(C1)N2CC1=C(C(=O)OC)[C@H](c2ccc(F)cc2Cl)N=C(c2nccs2)N1` [Example 16, (R)-4-(2-Chloro-4-fluoro-phenyl)-6-(7-methylsulfamoyl-3-oxa-7,9-diaza-bicyclo[3.3.1]non-9-ylmethyl)-2-thiazol-2-yl-1,4-dihydro-pyrimidine-5-carboxylic acid methyl ester], for which the EC50 under setting [1] is 15 nM.
Consider `CCOC(=O)C(C)(C)N1CC2COCC(C1)N2CC1=C(C(=O)OC)[C@H](c2ccc(F)cc2Cl)N=C(c2nccs2)N1` [Example 20, (R)-4-(2-Chloro-4-fluoro-phenyl)-6-[7-(1-ethoxycarbonyl-1-methyl-ethyl)-3-oxa-7,9-diaza-bicyclo[3.3.1]non-9-ylmethyl]-2-thiazol-2-yl-1,4-dihydro-pyrimidine-5-carboxylic acid methyl ester], for which, under setting [1], the 50% effective concentration (EC50) was 35 nM.
The same measure, in the same setting: the figure for `COC(=O)C1=C(CN2C3COCC2CC(CC(=O)O)C3)NC(c2nccs2)=NC1c1ccc(F)c(F)c1` (stereo not drawn) [Example 27, 6-(7-Carboxymethyl-3-oxa-9-aza-bicyclo[3.3.1]non-9-ylmethyl)-4-(3,4-difluoro-phenyl)-2-thiazol-2-yl-1,4-dihydro-pyrimidine-5-carboxylic acid methyl ester] is 254 nM; for `COC(=O)C1=C(CN2C3COCC2CC(C(O)C(=O)OC)C3)NC(c2nccs2)=N[C@H]1c1ccc(F)cc1Cl` (stereo partly drawn) [Example 30, (R)-4-(2-Chloro-4-fluoro-phenyl)-6-[7-(hydroxy-methoxycarbonyl-methyl)-3-oxa-9-aza-bicyclo[3.3.1]non-9-ylmethyl]-2-thiazol-2-yl-1,4-dihydro-pyrimidine-5-carboxylic acid methyl ester] it is 11 nM; for `COC(=O)C1=C(CN2C3COCC2c2c(C)n[nH]c2C3)NC(c2nccs2)=N[C@H]1c1ccc(F)cc1Cl` (stereo partly drawn) [Example 32, (R)-4-(2-Chloro-4-fluoro-phenyl)-6-(3-methyl-10-oxa-4,5,12-triaza-tricyclo[6.3.1.0*2,6*]dodeca-2(6),3-dien-12-ylmethyl)-2-thiazol-2-yl-1,4-dihydro-pyrimidine-5-carboxylic acid methyl ester] it is 32 nM.
On the same count and under the same terms, under `COC(=O)C1=C(CN2[C@@H]3COC[C@H]2CC(OCC(=O)O)C3)NC(c2nccs2)=N[C@H]1c1ccc(F)c(F)c1` (stereo partly drawn) [Example 47, 2-[[(1R,5S)-9-[[(4S)-4-(3,4-difluorophenyl)-5-methoxycarbonyl-2-thiazol-2-yl-1,4-dihydropyrimidin-6-yl]methyl]-3-oxa-9-azabicyclo[3.3.1]nonan-7-yl]oxy]acetic acid] stands 295 nM.
Still for that read-out and setting: the figure for `COC(=O)C1=C(CN2C3COCC2C(F)C3)NC(c2nccs2)=N[C@H]1c1ccc(F)cc1Cl` (stereo partly drawn) [Example 51, Methyl (4R)-4-(2-chloro-4-fluoro-phenyl)-6-[(6-fluoro-3-oxa-8-azabicyclo[3.2.1]octan-8-yl)methyl]-2-thiazol-2-yl-1,4-dihydropyrimidine-5-carboxylate] is 14.9 nM; for `COC(=O)C1=C(CN2C3COCC2C(F)c2oncc23)NC(c2nccs2)=N[C@H]1c1ccc(F)cc1Cl` (stereo partly drawn) [Example 106, (4R)-4-(2-Chloro-4-fluoro-phenyl)-6-(7-fluoro-5,10-dioxa-4,12-diaza-tricyclo[6.3.1.0*2,6*]dodeca-2(6),3-dien-12-ylmethyl)-2-thiazol-2-yl-1,4-dihydropyrimidine-5-carrboxylic acid methyl ester] it is 8.5 nM; for `COC(=O)C1=C(CN2[C@H]3C[C@H](CC(=O)O)C[C@@H]2C(F)(F)C3)NC(c2nccs2)=N[C@H]1c1ccc(F)c(F)c1C` [Example 112, 2-[(1S,3S,5R)-8-[[(4S)-4-(3,4-difluoro-2-methyl-phenyl)-5-methoxycarbonyl-2-thiazol-2-yl-1,4-dihydropyrimidin-6-yl]methyl]-6,6-difluoro-8-azabicyclo[3.2.1]octan-3-yl]acetic acid] it is 35.8 nM.
Take `COC(=O)C1=C(CN2C3CC(F)(F)C2C[C@](O)(CC(=O)O)C3)NC(c2nccs2)=N[C@H]1c1ccc(F)c(F)c1C` (stereo partly drawn) [Example 119, 2-[(3S)-8-[[(4S)-4-(3,4-difluoro-2-methyl-phenyl)-5-methoxycarbonyl-2-thiazol-2-yl-1,4-dihydropyrimidin-6-yl]methyl]-6,6-difluoro-3-hydroxy-8-azabicyclo[3.2.1]octan-3-yl]acetic acid]: under setting [1], the EC50 amounted to 21.3 nM.
For the molecule `COC(=O)C1=C(CN2C3CC(F)(F)C2C[C@](O)(CC(=O)O)C3)NC(c2nccs2)=N[C@H]1c1cccc(F)c1Cl` (stereo partly drawn) [Example 121, 2-[(3S)-8-[[(4R)-4-(2-chloro-3-fluoro-phenyl)-5-methoxycarbonyl-2-thiazol-2-yl-1,4-dihydropyrimidin-6-yl]methyl]-6,6-difluoro-3-hydroxy-8-azabicyclo[3.2.1]octan-3-yl]acetic acid], the EC50 under setting [1] was determined as 33 nM.
Regarding `COC(=O)C1=C(CN2C3CNC(=O)C2COC3)NC(c2nccs2)=N[C@H]1c1ccc(F)cc1Cl` (stereo partly drawn) [Example 133, Methyl (4R)-4-(2-chloro-4-fluoro-phenyl)-6-[(6-oxo-3-oxa-7,9-diazabicyclo[3.3.1]nonan-9-yl)methyl]-2-thiazol-2-yl-1,4-dihydropyrimidine-5-carboxylate], the EC50 under setting [1] was 34 nM.
As for `CCOC(=O)CC1(O)CC2COCC(C1O)N2CC1=C(C(=O)OC)[C@H](c2ccc(F)cc2Cl)N=C(c2nccs2)N1` (stereo partly drawn) [Example 138, Methyl (4R)-4-(2-chloro-4-fluoro-phenyl)-6-[[7-(2-ethoxy-2-oxo-ethyl)-6,7-dihydroxy-3-oxa-9-azabicyclo[3.3.1]nonan-9-yl]methyl]-2-thiazol-2-yl-1,4-dihydropyrimidine-5-carboxylate], under setting [1], the EC50 was found to be 58.2 nM.
Same read-out and setting: under `CCOC(=O)C1=C(CN2C3COCC2CC(N)(C(=O)O)C3)NC(c2nccs2)=N[C@H]1c1cccc(F)c1F` (stereo partly drawn) [Example 140, 7-amino-9-[[(4R)-4-(2,3-difluorophenyl)-5-ethoxycarbonyl-2-thiazol-2-yl-1,4-dihydropyrimidin-6-yl]methyl]-3-oxa-9-azabicyclo[3.3.1]nonane-7-carboxylic acid] stands 103 nM; under `CCOC(=O)C1=C(CN2C3COCC2CC(N)(C(=O)O)C3)NC(c2nccs2)=N[C@H]1c1ccc(F)cc1Br` (stereo partly drawn) [Example 141, 7-amino-9-[[(4R)-4-(2-bromo-4-fluoro-phenyl)-5-ethoxycarbonyl-2-thiazol-2-yl-1,4-dihydropyrimidin-6-yl]methyl]-3-oxa-9-azabicyclo[3.3.1]nonane-7-carboxylic acid], 271 nM.
Take `COC(=O)C1=C(CN2CC3CCC(C2)O3)NC(c2nccs2)=N[C@H]1c1ccc(F)cc1Cl` [Example 142, Methyl (4R)-4-(2-chloro-4-fluoro-phenyl)-6-(8-oxa-3-azabicyclo[3.2.1]octan-3-ylmethyl)-2-thiazol-2-yl-1,4-dihydropyrimidine-5-carboxylate]: the half-maximal effective concentration (EC50) under setting [1] stood at 130 nM.
For `COC(=O)C1=C(CN2CC3CC2CC3(F)F)NC(c2nccs2)=N[C@H]1c1ccc(F)cc1Cl` (stereo partly drawn) [Example 143, Methyl (4R)-4-(2-chloro-4-fluoro-phenyl)-6-[(5,5-difluoro-2-azabicyclo[2.2.1]heptan-2-yl)methyl]-2-thiazol-2-yl-1,4-dihydropyrimidine-5-carboxylate], under setting [1], the 50% effective concentration (EC50) came out at 41 nM.
The same measure, in the same setting: under `COC(=O)C1=C(CN2CC3CC2C(F)(F)C3)NC(c2nccs2)=N[C@H]1c1ccc(F)cc1Cl` (stereo partly drawn) [Example 144, Methyl (4R)-4-(2-chloro-4-fluoro-phenyl)-6-[(5,5-difluoro-3-azabicyclo[2.2.1]heptan-3-yl)methyl]-2-thiazol-2-yl-1,4-dihydropyrimidine-5-carboxylate] stands 94 nM.
